Assay results taken from patent publication US20240228493A1, “LRRK2 INHIBITORS AND USES THEREOF” (NEURON23, ICN., priority 2022, published 2024).

What was measured:
[1] = biological target: T1, wt human LRRK2, catalytic site (Homo sapiens, UniProt Q5S007); experiment: TR-FRET LanthaScreen Tb Kinase Activity Assay, LRRK2 inhibition; format: biochemical; details: 2 nM wt human LRRK2, 400 nM peptide, 38 μM ATP
T1 construct: wt human LRRK2, catalytic site, catalytic site (ThermoFisher/USA); purchased ThermoFisher
Protocol: The compounds disclosed herein were tested for their inhibitory effect on LRRK2 kinase according to the following procedures.
The protocol for basic TR-FRET LanthaScreen Tb Kinase Activity Assay inhibitor studies were as follows. LanthaScreen Kinase Activity Assays (ThermoFisher/USA) to evaluate inhibitors were performed by addition of 100 nL of test compound in corresponding DMSO dilutions/5 μL of kinase/fluorescein-ERM (LRRKtide) peptide mixture, Compound & kinase were pre-incubated for 15 minutes, then 5 μl of ATP into 384 well small volume plates. After incubation for 120 minutes at room temperature, the detection reagents containing Tb-anti-pLRRKtide antibody were added to monitor phosphorylation level of peptide. Then, after 60 min minutes incubation at room temperature plates were read in Envision. Data analysis of emission ratios was according to LanthaScreen Tb Kinase Activity Assay protocol.
Kinase and assay components were adjusted to final concentrations according to the kit protocol. For LRRK2: 2 nM wt human LRRK2, catalytic site, catalytic site (ThermoFisher/USA), 400 nM peptide, 38 μM ATP in 1× Kinase Buffer A. […]
Kinase and assay components were adjusted to final concentrations according to the kit protocol.

Caco-2 cells = experiment: Caco-2 bidirectional permeability; format: in vitro ADME; details: for Caco-2 ER: Efflux Ratio=Papp(BA)/Papp(AB); for Caco-2 A2B (10^−6 cm/s): apical to basolateral; for Caco-2 A2B (10^−6 cm/s) / Caco-2 B2A (10^−6 cm/s): 2 hours, pH 7.4; for Caco-2 B2A (10^−6 cm/s): basolateral to apical
Protocol: The compounds disclosed herein were tested in vitro on CaCo2 cell penetration according to the following procedures.
Caco-2 cells purchased from ATCC were seeded onto […] (PET) in 96-well Corning Insert plates at 1×10^5 cells/cm^2. The media were refreshed every 4 to 5 days until the 21st to 28th day for confluent cell monolayer formation.
Experiments were run in duplicate using a HBSS transport buffer containing 10 mM HEPES at pH 7.4. The test article TEST COMPOUND was tested bi-directionally at […] concentrations, the control compound digoxin was tested bi-directionally at 10 μM, and nadolol and metoprolol were tested at 2.0 μM in the A to B direction. Final DMSO concentrations were adjusted to less than 1%. The plates were incubated for 2 hours in a CO2 incubator at 37±1° C. with 5% CO2 at saturated humidity without shaking. Following incubation, samples were mixed with acetonitrile containing internal standard and centrifuged at 3200×g for 10 minutes. Then 200 μL of supernatant was taken from all samples. For TEST COMPOUND and digoxin, the supernatant was diluted with 200 μL of ultra-pure water and for nadolol and metoprolol, the supernatant was diluted with 600 μL of ultra-pure water. All samples were analyzed by LC-MS/MS. Concentrations of TEST COMPOUND and control compounds were determined in starting solutions, donor well solutions, and receiver well solutions using peak area ratios (PAR) of analyte to internal standard. After the transport assay, a lucifer yellow rejection assay was run to determine the Caco-2 cell monolayer integrity.
The apparent permeability (Papp), the % recovery and the efflux ratio were calculated as follows:
Papp=(dCr/dt)×Vr/(A×C0) 1.
Efflux Ratio=Papp(BA)/Papp(AB) 3. • Where: • dCr/dt is the slope of the cumulative concentration in the receiver compartment versus time (mM/s). • Vr and Vd is the volume in the receiver and donor compartments (0.075 mL on the apical side, 0.25 mL on the basolateral side), respectively. • A is the surface area of the cell monolayer (0.0804 cm^2). • C0 is the measured donor concentrations (μM) at the beginning of the experiment. • Cd and Cr are the final measured concentrations in the donor and receiver compartments, respectively.

human hepatocyte = experiment: Human hepatocyte stability, predicted hepatic clearance (h-Hept CL predict); format: in vitro ADME; details: human hepatocytes, 0.5×10^6 cells/mL, 1 μM, values without asterisk
Protocol: The compounds disclosed herein were tested in vitro on human hepatocyte for in vitro h-Hept CL predict according to the following procedures. • 1. Compound sock solutions were prepared by dissolving test compound and positive control in dimethyl sulfoxide (DMSO) at a concentration of 10 mM. Stock solutions were then diluted to 100 μM solutions by combining 198 μL of 50% acetonitrile/50% water with 2 μL of the 10 mM stock in separate conical tubes. • 2. Cryopreserved hepatocytes were prepared as follows: Incubation medium (William's E Medium supplemented with GlutaMAX) and hepatocyte thawing medium were placed in a 37° C. water bath and allowed to warm for at least 15 minutes prior to use. Cryopreserved hepatocytes were removed from storage, ensuring that vials remained at cryogenic temperatures until thawed. Cells were thawed by placing the vials in a 37° C. water bath and gently shaking the vials for 2 minutes. After thawing was completed, vials were sprayed with 70% ethanol and transferred to a biosafety cabinet. Hepatocytes were transferred into 50 mL conical tube containing thawing medium using wide-bore pipette tips. Tubes were placed into a centrifuge and spun at 100 g for 10 minutes. Then thawing medium was aspirated and hepatocytes were resuspended in enough incubation medium to yield ˜1.5×10^6 cells/mL. Cells were counted using acridine orange and propidium iodide (AO/PI) staining, and the viable cell density was determined. Cells were diluted with incubation medium to a working cell density of 0.5×10^6 viable cells/mL. • 3. To determine hepatocyte stability, 198 μL of hepatocytes were transferred into each well of a 96-well non-coated plate. Plates were placed in an incubator to allow the hepatocytes to warm for 10 minutes. • 4. The reaction was started by transferring 2 μL of the 100 μM test compound or positive control solution into respective wells of the 96-well non-coated plates. Plates were returned to the incubator until 25 μL aliquots of well contents were sampled at time points of 0, 15, 30, 60, 90 and 120 minutes. The aliquots were then mixed with 6 volumes (150 μL) of acetonitrile containing internal standard, IS (100 nM alprazolam, 200 nM caffeine and 100 nM tolbutamide) to terminate the reaction and vortexed for 5 minutes. After centrifuging the samples for 45 minutes at 3,220 g, aliquots of 100 μL of the supernatant were taken and diluted with 100 μL of ultra-pure water. The mixture was used for LC/MS/MS analysis. All incubations were performed in duplicate.
All calculations were carried out using Microsoft Excel. Peak area ratios (PAR) were determined from extracted ion chromatograms. The in vitro half-life (t1/2) of parent compound was determined by regression analysis of the percent parent disappearance vs. time curve as follows:
Conversion of the in vitro t1/2 (in minutes) into the in vitro intrinsic clearance (in vitro CLint, in μL/min/1×10^6 cells) was done using the following equation (mean of duplicate determinations): […]
The scaled-up intrinsic clearance (CLint, mL/min/kg), predicted hepatic clearance (CLH, mL/min/kg) and hepatic extraction ratio (ER) were calculated using the following equations:
CLint=(0.693/t1/2)*(1/(hepatocyte concentration (0.5*10^6 cells/mL)))*scaling factors (Table (A) Appendix Table 1)
CLHept-predict=(QH*Scaled-up CLint*fub)/(QH+Scaled-up CLint*fub)
ER=CLH/QH • Where: • V=incubation volume (0.2 mL) • N=number of hepatocytes per well (0.1*10^6 cells) • QH=hepatic blood flow (mL/min/kg) (Table (A) Appendix Table 1) • fub=fraction of unbound drug in plasma, assumed to be 1

T1 sequence (Q5S007 1879-2138 limits assumed): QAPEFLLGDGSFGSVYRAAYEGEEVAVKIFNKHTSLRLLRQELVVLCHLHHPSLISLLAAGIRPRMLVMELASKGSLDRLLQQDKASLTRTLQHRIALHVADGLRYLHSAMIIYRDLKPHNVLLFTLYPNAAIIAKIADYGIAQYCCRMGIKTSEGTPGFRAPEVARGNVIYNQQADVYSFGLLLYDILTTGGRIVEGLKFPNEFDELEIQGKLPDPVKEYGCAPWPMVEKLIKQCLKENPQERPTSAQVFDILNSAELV

Compound | IC50 [1] | Caco-2 ER (Caco-2 cells) | Caco-2 A2B (10^−6 cm/s) (Caco-2 cells) | Caco-2 B2A (10^−6 cm/s) (Caco-2 cells) | hHep Cl (mL/min/kg) (human hepatocyte)
Cc1n[nH]c2c1N=C(c1c(F)cccc1F)Nc1cnc(N3CCO[C@@]4(CCOC4)C3)cc1-2 (single isomer, unassigned) [Example 3] | < 1 nM | L (L (Likely)”: ER≥2.5) | M (M (Moderate permeability)”: 1≤A2B (B2A)≤5) | H (H (High permeability)”: A2B (B2A)>5) | L (L (Low Cl)”: Hep Cl (mL/min/kg)<6.3)
Cc1n[nH]c2c1N=C(c1c(F)cccc1F)Nc1cnc(N3CCO[C@]4(CCOC4)C3)cc1-2 (single isomer, unassigned) [Example 4] | < 1 nM | L (L (Likely)”: ER≥2.5) | M (M (Moderate permeability)”: 1≤A2B (B2A)≤5) | H (H (High permeability)”: A2B (B2A)>5) | L (L (Low Cl)”: Hep Cl (mL/min/kg)<6.3)
Cc1n[nH]c2c1N=C(c1c(F)cccc1F)Nc1cnc(N3CCC[C@](C)(C#N)C3)cc1-2 (single isomer, unassigned) [Example 13] | < 1 nM | L (L (Likely)”: ER≥2.5) | M (M (Moderate permeability)”: 1≤A2B (B2A)≤5) | H (H (High permeability)”: A2B (B2A)>5) | I (I (Intermediate Cl)”: 6.3≤Hep Cl (mL/min/kg)≤14.7)
Cc1n[nH]c2c1N=C(c1c(F)cccc1F)Nc1cnc(N3CCN(CCF)CC3)cc1-2 [Example 1, 8-(2,6-difluorophenyl)-13-[4-(2-fluoroethyl)piperazin-1-y1]-5-methyl-3,4,7,9,12-pentazatricyclo[8.4.0.02,6]tetradeca-1(10),2(6),4,7,11,13-hexaene] | < 1 nM | L (L (Likely)”: ER≥2.5) | M (M (Moderate permeability)”: 1≤A2B (B2A)≤5) | H (H (High permeability)”: A2B (B2A)>5) | I (I (Intermediate Cl)”: 6.3≤Hep Cl (mL/min/kg)≤14.7)
Cc1n[nH]c2c1N=C(c1c(F)cccc1F)Nc1cnc(N3CCOC4(COC4)C3)cc1-2 [Example 5, 8-[8-(2,6-difluorophenyl)-5-methyl-3,4,7,9,12-pentazatricyclo[8.4.0.02,6]tetradeca-1(10),2(6),4,7,11,13-hexaen-13-y1]-2,5-dioxa-8-azaspiro[3.5]nonane] | < 1 nM | L (L (Likely)”: ER≥2.5) | L (L (Low permeability)”: A2B (B2A)<1) | H (H (High permeability)”: A2B (B2A)>5) | L (L (Low Cl)”: Hep Cl (mL/min/kg)<6.3)
Cc1n[nH]c2c1N=C(c1c(F)cccc1F)Nc1cnc(N3CCNC4(COC4)C3)cc1-2 [Example 7, 8-[8-(2,6-difluorophenyl)-5-methyl-3,4,7,9,12-pentazatricyclo[8.4.0.02,6]tetradeca-1(10),2(6),4,7,11,13-hexaen-13-y1]-2-oxa-5,8-diazaspiro[3.5]nonane] | < 1 nM | L (L (Likely)”: ER≥2.5) | L (L (Low permeability)”: A2B (B2A)<1) | H (H (High permeability)”: A2B (B2A)>5) | L (L (Low Cl)”: Hep Cl (mL/min/kg)<6.3)
Cc1n[nH]c2c1N=C(c1c(F)cccc1F)Nc1cnc(N3CCN(C)CC3)cc1-2 [Example 8, 8-(2,6-difluorophenyl)-5-methyl-13-(4-methylpiperazin-1-y1)-3,4,7,9,12-pentazatricyclo[8.4.0.02,6]tetradeca-1(10),2(6),4,7,11,13-hexaene] | < 1 nM | L (L (Likely)”: ER≥2.5) | M (M (Moderate permeability)”: 1≤A2B (B2A)≤5) | H (H (High permeability)”: A2B (B2A)>5) | L (L (Low Cl)”: Hep Cl (mL/min/kg)<6.3)
Cc1n[nH]c2c1N=C(c1c(F)cccc1F)Nc1cnc(N3CCCOCC3)cc1-2 [Example 9, 4-[8-(2,6-difluorophenyl)-5-methyl-3,4,7,9,12-pentazatricyclo[8.4.0.02,6]tetradeca-1(10),2(6),4,7,11,13-hexaen-13-y1]-1,4-oxazepane] | 1 to 100 nM | L (L (Likely)”: ER≥2.5) | M (M (Moderate permeability)”: 1≤A2B (B2A)≤5) | H (H (High permeability)”: A2B (B2A)>5) | L (L (Low Cl)”: Hep Cl (mL/min/kg)<6.3)
Cc1n[nH]c2c1N=C(c1c(F)cccc1F)Nc1cnc(N3CCNCC3)cc1-2 [Example 10, 8-(2,6-difluorophenyl)-5-methyl-13-piperazin-1-yl-3,4,7,9,12-pentazatricyclo[8.4.0.02,6]tetradeca-1(10),2(6),4,7,11,13-hexaene] | 1 to 100 nM | L (L (Likely)”: ER≥2.5) | L (L (Low permeability)”: A2B (B2A)<1) | H (H (High permeability)”: A2B (B2A)>5) | L (L (Low Cl)”: Hep Cl (mL/min/kg)<6.3)
CCS(=O)(=O)N1CCN(c2cc3c(cn2)NC(c2c(F)cccc2F)=Nc2c(C)n[nH]c2-3)CC1 [Example 11, 8-(2,6-difluorophenyl)-13-(4-ethylsulfonylpiperazin-1-y1)-5-methyl-3,4,7,9,12-pentazatricyclo[8.4.0.02, 6]tetradeca-1(10),2(6),4,7,11,13-hexaene] | < 1 nM | L (L (Likely)”: ER≥2.5) | L (L (Low permeability)”: A2B (B2A)<1) | H (H (High permeability)”: A2B (B2A)>5) | I (I (Intermediate Cl)”: 6.3≤Hep Cl (mL/min/kg)≤14.7)
